Experimental data as given in patent US20250171447A1, “ADENOSINE RECEPTOR ANTAGONISTS, PHARMACEUTICAL COMPOSITIONS AND THEIR USE THEREOF” (Merck Sharp & Dohme LLC, priority 2022, published 2025).

The molecules below were run against human A2B adenosine receptor (Homo sapiens (Human), UniProt P29275) (assay: A2B binding affinity radioligand filtration binding assay). Conditions: membranes from HEK293 cells expressing human A2B; tritiated proprietary A2B antagonist.
Sequence of human A2B adenosine receptor (P29275 whole entry): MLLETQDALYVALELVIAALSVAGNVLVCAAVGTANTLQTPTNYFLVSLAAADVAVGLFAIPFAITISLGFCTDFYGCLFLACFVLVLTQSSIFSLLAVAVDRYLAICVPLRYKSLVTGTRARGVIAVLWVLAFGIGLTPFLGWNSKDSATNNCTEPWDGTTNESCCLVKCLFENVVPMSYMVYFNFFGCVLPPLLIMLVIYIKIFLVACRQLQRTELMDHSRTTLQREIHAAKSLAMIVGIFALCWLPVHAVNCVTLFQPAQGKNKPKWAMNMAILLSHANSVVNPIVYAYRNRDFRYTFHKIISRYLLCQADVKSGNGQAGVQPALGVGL
In the case of COc1cccc2c1nc(N)n1nc(C3CC3c3nc4ccccc4n3C)nc21 (stereo not drawn) [Ex-3, 7-methoxy-2-[2-(1-methyl-1H-benzimidazol-2-yl)cyclopropyl][1,2,4] triazolo[1,5-c] quinazolin-5-amine], the IC50 is reported as 2.9 nM.
Molecule COc1cccc2c1nc(N)n1nc([C@H]3C[C@H](c4ncc(C(C)(C)N)cc4C)C3)nc21 [Ex-83, 2-((1r,3r)-3-(5-(2-aminopropan-2-yl)-3-methylpyridin-2-yl)cyclobutyl)-7-methoxy-[1,2,4]triazolo[1,5-c]quinazolin-5-amine] has an IC50 of 1.6 nM.

The molecules below were run against human A2A adenosine receptor (Homo sapiens (Human), UniProt P29274) (assay: A2A receptor affinity binding assay (radioligand filtration binding or SPA, [3H]SCH58261)). Conditions: membranes from HEK293 or CHO cells expressing human A2A; Method (A) filtration or Method (B) SPA.
Sequence of human A2A adenosine receptor (P29274 whole entry): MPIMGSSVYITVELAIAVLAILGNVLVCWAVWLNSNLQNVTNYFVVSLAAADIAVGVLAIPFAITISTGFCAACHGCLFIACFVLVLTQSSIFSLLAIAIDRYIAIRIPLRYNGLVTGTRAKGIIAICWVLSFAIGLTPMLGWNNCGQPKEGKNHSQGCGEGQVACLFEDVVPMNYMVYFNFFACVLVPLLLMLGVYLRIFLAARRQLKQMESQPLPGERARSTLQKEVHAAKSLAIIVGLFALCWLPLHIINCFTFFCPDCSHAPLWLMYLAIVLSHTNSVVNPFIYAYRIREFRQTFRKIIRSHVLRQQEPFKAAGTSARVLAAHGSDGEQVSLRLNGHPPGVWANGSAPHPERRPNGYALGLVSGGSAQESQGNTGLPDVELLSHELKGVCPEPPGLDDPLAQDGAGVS
Work on COc1cccc2c1nc(N)n1nc([C@H]3C[C@@H](c4cnc(C(C)(C)N)c(C)n4)C3)nc21 [Ex-122, 2-((1s,3s)-3-(5-(2-aminopropan-2-yl)-6-methylpyrazin-2-yl)cyclobutyl)-7-methoxy-[1,2,4]triazolo[1,5-c]quinazolin-5-amine] yielded an IC50 of 15.9 nM.
Molecule COc1cccc2c1nc(N)n1nc([C@H]3C[C@H](c4ccc(C(C)(C)N)c(C)n4)C3)nc21 (single isomer, unassigned) [Ex-117, 2-{trans-3-[5-(2-aminopropan-2-yl)-6-methylpyridin-2-yl]cyclobutyl}-7-methoxy[1,2,4]triazolo[1,5-c]quinazolin-5-amine] has an IC50 of 8.1 nM.
Molecule COc1cccc2c1nc(N)n1nc([C@H]3C[C@H](c4cnc(C(C)(C)N)c(C)n4)C3)nc21 [Ex-121, 2-((1r,3r)-3-(5-(2-aminopropan-2-yl)-6-methylpyrazin-2-yl)cyclobutyl)-7-methoxy-[1,2,4]triazolo[1,5-c]quinazolin-5-amine] has an IC50 of 3.7 nM.
Work on COc1cccc2c1nc(N)n1nc([C@H]3C[C@@H](c4ncc(C(C)(C)N)nc4C)C3)nc21 [Ex-89, 2-((1s,3s)-3-(5-(2-aminopropan-2-yl)-3-methylpyrazin-2-yl)cyclobutyl)-7-methoxy-[1,2,4]triazolo[1,5-c]quinazolin-5-amine] yielded an IC50 of 27.7 nM.
Work on COc1cccc2c1nc(N)n1nc([C@H]3C[C@H](c4ccc(N5CCN(C)CC5)nc4)C3)nc21 [Ex-114, 7-methoxy-2-{trans-3-[6-(4-methylpiperazin-1-yl)pyridin-3-yl]cyclobutyl}[1,2,4]triazolo[1,5-c]quinazolin-5-amine] yielded an IC50 of 1.3 nM.
In the case of COc1cccc2c1nc(N)n1nc([C@H]3C[C@@H](c4ccc(C(C)N)cn4)C3)nc21 (stereo partly drawn) [Ex-71, 2-{cis-3-[5-(1-aminoethyl)pyridin-2-yl]cyclobutyl}-7-methoxy[1,2,4]triazolo[1,5-c]quinazolin-5-amine], the IC50 is reported as 18.4 nM.
Molecule COc1cccc2c1nc(N)n1nc([C@H]3C[C@@H](c4ncc5c(n4)CNC5)C3)nc21 (single isomer, unassigned) [Ex-109, 2-[(cis)-3-(6,7-dihydro-5H-pyrrolo[3,4-d]pyrimidin-2-yl)cyclobutyl]-7-methoxy[1,2,4]triazolo[1,5-c]quinazolin-5-amine] has an IC50 of 86.1 nM.
COc1cccc2c1nc(N)n1nc([C@H]3C[C@H](c4ccc([C@@]5(C(F)(F)F)CCCCN5)cc4)C3)nc21 [Ex-100, 7-methoxy-2-(trans-3-{4-[(2R)-2-(trifluoromethyl)piperidin-2-yl]phenyl}cyclobutyl)[1,2,4]triazolo[1,5-c]quinazolin-5-amine] was tested, and the IC50 was 3.2 nM.
Molecule COc1cc(F)cc2c1nc(N)n1nc(C3CC3C(C)(C)O)nc21 (stereo not drawn) [Ex-28, 2-(2-(5-amino-9-fluoro-7-methoxy-[1,2,4]triazolo[1,5-c]quinazolin-2-yl)cyclopropyl)propan-2-ol] has an IC50 of 1.5 nM.
Molecule COc1cccc2c1nc(N)n1nc([C@H]3C[C@@H](c4ccc(C(C)(C)N)c(C)n4)C3)nc21 (single isomer, unassigned) [Ex-118, 2-{cis-3-[5-(2-aminopropan-2-yl)-6-methylpyridin-2-yl]cyclobutyl}-7-methoxy[1,2,4]triazolo[1,5-c]quinazolin-5-amine] has an IC50 of 4.8 nM.
With COc1cccc2c1nc(N)n1nc([C@H]3C[C@H](c4ccc(C(C)(N)C(F)F)nc4)C3)nc21 (stereo partly drawn) [Ex-92, 2-{(1r,3r)-3-[6-(2-amino-1,1-difluoropropan-2-yl)pyridin-3-yl]cyclobutyl}-7-methoxy[1,2,4]triazolo[1,5-c]quinazolin-5-amine] the IC50 was 14.1 nM.
In the case of COc1cccc2c1nc(N)n1nc([C@H]3C[C@@H](c4ncc(C(C)(C)N)cc4F)C3)nc21 [Ex-86, 2-{cis-3-[5-(2-aminopropan-2-yl)-3-fluoropyridin-2-yl]cyclobutyl}-7-methoxy[1,2,4]triazolo[1,5-c]quinazolin-5-amine], the IC50 is reported as 12.7 nM.
Molecule COc1cccc2c1nc(N)n1nc([C@H]3C[C@H](c4ccc(C(C)N)cn4)C3)nc21 (stereo partly drawn) [Ex-72, 2-{trans-3-[5-(1-aminoethyl)pyridin-2-yl]cyclobutyl}-7-methoxy[1,2,4]triazolo[1,5-c]quinazolin-5-amine] has an IC50 of 7.9 nM.
COc1cccc2c1nc(N)n1nc([C@H]3C[C@H](c4ncc(C(C)(C)N)nc4C4CC4)C3)nc21 [Ex-125, 2-((1r,3r)-3-(5-(2-aminopropan-2-yl)-3-cyclopropylpyrazin-2-yl)cyclobutyl)-7-methoxy-[1,2,4]triazolo[1,5-c]quinazolin-5-amine] was tested, and the IC50 was 2.6 nM.
Work on COc1cccc2c1nc(N)n1nc([C@H]3C[C@H](c4ncc(C(C)(C)N)nc4C(F)(F)F)C3)nc21 [Ex-126, 2-{trans-3-[5-(2-aminopropan-2-yl)-3-(trifluoromethyl)pyrazin-2-yl]cyclobutyl}-7-methoxy[1,2,4]triazolo[1,5-c]quinazolin-5-amine] yielded an IC50 of 4.6 nM.
Cc1nc(C(C)(C)N)cnc1[C@H]1C[C@H](c2nc3c4cccc(Cl)c4nc(N)n3n2)C1 [Ex-127, 2-((1r,3r)-3-(5-(2-aminopropan-2-yl)-3-methylpyrazin-2-yl)cyclobutyl)-7-chloro-[1,2,4]triazolo[1,5-c]quinazolin-5-amine] gave an IC50 of 2.9 nM.
With COc1cccc2c1nc(N)n1nc([C@H]3C[C@@H](c4ccc(C(N)C(F)(F)F)cc4)C3)nc21 (single isomer, unassigned) [Ex-75, 2-{cis-3-[4-(1-amino-2,2,2-trifluoroethyl)phenyl]cyclobutyl}-7-methoxy[1,2,4]triazolo[1,5-c]quinazolin-5-amine] the IC50 was 0.3 nM.
COc1cccc2c1nc(N)n1nc([C@H]3C[C@@H](c4ncc(C5(N)COC5)cc4C)C3)nc21 [Ex-123, 2-{cis-3-[5-(3-aminooxetan-3-yl)-3-methylpyridin-2-yl]cyclobutyl}-7-methoxy[1,2,4]triazolo[1,5-c]quinazolin-5-amine] gave an IC50 of 1.8 nM.
With COc1cccc2c1nc(N)n1nc([C@H]3C[C@H](c4ccc(C5(N)CC(F)(F)C5)cn4)C3)nc21 [Ex-141] the IC50 was 3.1 nM.
COc1cccc2c1nc(N)n1nc([C@H]3C[C@H](c4ccc(C(N)C(F)(F)F)cc4)C3)nc21 (stereo partly drawn) [Ex-79, 2-{trans-3-[4-(1-amino-2,2,2-trifluoroethyl)phenyl]cyclobutyl}-7-methoxy[1,2,4]triazolo[1,5-c]quinazolin-5-amine] was tested, and the IC50 was 2.7 nM.
COc1cccc2c1nc(N)n1nc([C@H]3C[C@H](c4cnc(N5CCN[C@H](C)C5)c(C)c4)C3)nc21 [Ex-102, 7-methoxy-2-(trans-3-{5-methyl-6-[(3R)-3-methylpiperazin-1-yl]pyridin-3-yl}cyclobutyl)[1,2,4]triazolo[1,5-c]quinazolin-5-amine] showed an IC50 of 1.5 nM.
COc1cccc2c1nc(N)n1nc([C@H]3C[C@H](c4ncc(C5(N)COC5)cc4C)C3)nc21 [Ex-124, 2-{trans-3-[5-(3-aminooxetan-3-yl)-3-methylpyridin-2-yl]cyclobutyl}-7-methoxy[1,2,4]triazolo[1,5-c]quinazolin-5-amine] was tested, and the IC50 was 0.4 nM.
